Test results published in EP2727916A1, “Neuroprotective multi-target directed drugs” (Universitat Autònoma de Barcelona, priority 2012, dated 2014).
Where two headings read alike, the source gives them in different places.

Assays:
bovine lung SSAO = molecular target: T1, bovine lung SSAO (Bos taurus, UniProt Q9TTK6); assay: Inhibition of semicarbazide sensitive amine oxidase (SSAO), radiochemical; assay type: biochemical; settings: bovine lung SSAO; mean ± standard error of the mean; read-out: IC50 bovineSSAO
T1 construct: and bovine lung SSAO by compounds of the invention; from tissue; host or cells: bovine lung
T1 sequence (Q9TTK6 1-763): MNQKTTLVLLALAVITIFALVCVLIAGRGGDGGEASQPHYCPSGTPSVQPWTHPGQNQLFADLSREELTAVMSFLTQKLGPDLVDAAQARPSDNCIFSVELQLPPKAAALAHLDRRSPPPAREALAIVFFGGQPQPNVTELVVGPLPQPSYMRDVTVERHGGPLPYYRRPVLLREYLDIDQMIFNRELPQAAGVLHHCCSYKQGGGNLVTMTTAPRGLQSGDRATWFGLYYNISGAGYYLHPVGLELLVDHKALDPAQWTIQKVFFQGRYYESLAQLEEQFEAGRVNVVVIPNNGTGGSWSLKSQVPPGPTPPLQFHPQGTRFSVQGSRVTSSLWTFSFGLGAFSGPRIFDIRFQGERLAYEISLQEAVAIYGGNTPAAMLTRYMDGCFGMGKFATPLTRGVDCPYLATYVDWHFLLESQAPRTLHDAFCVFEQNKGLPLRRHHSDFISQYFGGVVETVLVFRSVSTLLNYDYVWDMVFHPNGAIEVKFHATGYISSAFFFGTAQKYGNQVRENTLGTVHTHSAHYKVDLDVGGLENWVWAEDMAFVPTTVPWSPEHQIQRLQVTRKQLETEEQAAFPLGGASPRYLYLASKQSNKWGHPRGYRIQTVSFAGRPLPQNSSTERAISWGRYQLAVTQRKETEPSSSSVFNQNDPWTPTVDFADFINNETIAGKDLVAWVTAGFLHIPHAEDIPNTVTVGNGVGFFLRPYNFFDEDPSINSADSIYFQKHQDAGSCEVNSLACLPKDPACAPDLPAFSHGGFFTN

[1] = molecular target: T2, electrophorus electricus acetylcholinesterase (eeAChE) (Electrophorus electricus, UniProt O42275); assay: biochemical; assay type: biochemical; settings: 20 minutes incubation at 37°C; mean ± standard error of the mean; read-out: IC50 EeAChE
[2] = molecular target: T3, equine serum butyrylcholinesterase (eqBuChE) (Equus caballus, UniProt P81908); assay: biochemical; assay type: biochemical
ratMAO-A [3] = molecular target: T4, ratMAO-A (Rattus norvegicus, UniProt P21396); assay: MAO-A inhibition, radiometric method of Fowler and Tipton (14C 5-HT); assay type: biochemical; design: MAO-A and MAO-B activities were determined in rat brain homogenate; from tissue; host or cells: rat brain homogenate per the methods; settings: 30 min pre-incubation at 37 °C; 100µM 5-HT; mean ± standard error of the mean
T4 sequence (P21396 1-526): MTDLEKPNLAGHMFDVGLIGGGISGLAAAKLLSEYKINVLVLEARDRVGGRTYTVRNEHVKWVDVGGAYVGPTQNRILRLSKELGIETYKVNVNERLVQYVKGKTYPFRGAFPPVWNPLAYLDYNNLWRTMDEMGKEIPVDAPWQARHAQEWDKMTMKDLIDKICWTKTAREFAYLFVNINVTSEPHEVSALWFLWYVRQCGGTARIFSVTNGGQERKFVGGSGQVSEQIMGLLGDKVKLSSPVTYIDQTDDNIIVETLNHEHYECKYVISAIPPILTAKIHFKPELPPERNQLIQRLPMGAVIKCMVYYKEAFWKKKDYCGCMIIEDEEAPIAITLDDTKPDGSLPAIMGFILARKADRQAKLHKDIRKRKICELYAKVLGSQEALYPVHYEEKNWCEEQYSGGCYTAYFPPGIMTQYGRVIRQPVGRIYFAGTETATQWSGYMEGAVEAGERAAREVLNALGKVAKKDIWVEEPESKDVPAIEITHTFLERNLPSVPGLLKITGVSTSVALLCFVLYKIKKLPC

ratMAO-B [4] = molecular target: T5, ratMAO-B (Rattus norvegicus, UniProt P19643); assay: MAO-B inhibition, radiometric method of Fowler and Tipton (14C PEA); assay type: biochemical; design: MAO-A and MAO-B activities were determined in rat brain homogenate; from tissue; host or cells: rat brain homogenate per the methods; settings: for IC50: 30 min pre-incubation at 37 °C, 20 µM PEA, mean ± standard error of the mean
T5 sequence (P19643 1-520): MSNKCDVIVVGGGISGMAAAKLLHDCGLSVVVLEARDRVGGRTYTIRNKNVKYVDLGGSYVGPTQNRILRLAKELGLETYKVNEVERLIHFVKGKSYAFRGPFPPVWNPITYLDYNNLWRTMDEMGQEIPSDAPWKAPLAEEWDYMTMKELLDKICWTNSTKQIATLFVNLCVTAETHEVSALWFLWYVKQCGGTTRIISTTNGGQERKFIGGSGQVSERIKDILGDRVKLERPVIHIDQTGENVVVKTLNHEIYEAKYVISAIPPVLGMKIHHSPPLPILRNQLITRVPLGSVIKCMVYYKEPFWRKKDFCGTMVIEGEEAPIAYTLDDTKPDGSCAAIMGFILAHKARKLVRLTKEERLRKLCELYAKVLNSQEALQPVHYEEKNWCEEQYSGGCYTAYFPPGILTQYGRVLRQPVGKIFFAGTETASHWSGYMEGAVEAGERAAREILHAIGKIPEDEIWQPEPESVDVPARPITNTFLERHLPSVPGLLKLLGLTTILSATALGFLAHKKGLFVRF

[5] = molecular target: T2, electrophorus electricus acetylcholinesterase (eeAChE); settings: reference value, footnote (a) Zheng et al. 2010; cited from earlier work
[6] = molecular target: T3, equine serum butyrylcholinesterase (eqBuChE); settings: reference value, footnote (a) Zheng et al. 2010; cited from earlier work
ratMAO-A [7] = molecular target: T4, ratMAO-A; design: MAO-A and MAO-B activities were determined in rat brain homogenate; from tissue; host or cells: rat brain homogenate per the methods; settings: reference value, footnote (a) Zheng et al. 2010; cited from earlier work
ratMAO-B [8] = molecular target: T5, ratMAO-B; design: MAO-A and MAO-B activities were determined in rat brain homogenate; from tissue; host or cells: rat brain homogenate per the methods; settings: reference value, footnote (a) Zheng et al. 2010; cited from earlier work
[9] = 20 minutes incubation at 37°C, mean ± standard error of the mean, read-out: IC50 eqBuChE

T2 sequence (O42275 24-633): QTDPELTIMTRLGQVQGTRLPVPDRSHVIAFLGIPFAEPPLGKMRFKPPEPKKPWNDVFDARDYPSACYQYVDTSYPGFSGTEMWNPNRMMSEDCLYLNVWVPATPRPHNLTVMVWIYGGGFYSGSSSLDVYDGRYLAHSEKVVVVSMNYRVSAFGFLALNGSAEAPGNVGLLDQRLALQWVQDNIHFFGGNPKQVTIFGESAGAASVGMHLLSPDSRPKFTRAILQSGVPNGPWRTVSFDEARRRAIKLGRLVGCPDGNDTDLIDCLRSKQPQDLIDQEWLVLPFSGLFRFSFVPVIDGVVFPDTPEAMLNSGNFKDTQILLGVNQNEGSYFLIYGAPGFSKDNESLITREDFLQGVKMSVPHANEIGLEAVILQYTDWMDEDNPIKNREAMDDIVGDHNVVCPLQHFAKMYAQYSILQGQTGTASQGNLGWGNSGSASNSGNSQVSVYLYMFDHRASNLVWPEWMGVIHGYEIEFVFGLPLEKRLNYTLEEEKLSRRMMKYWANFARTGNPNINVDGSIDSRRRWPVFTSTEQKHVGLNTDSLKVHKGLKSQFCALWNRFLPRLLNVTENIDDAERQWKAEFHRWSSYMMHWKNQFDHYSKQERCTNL
T3 sequence (P81908 whole entry): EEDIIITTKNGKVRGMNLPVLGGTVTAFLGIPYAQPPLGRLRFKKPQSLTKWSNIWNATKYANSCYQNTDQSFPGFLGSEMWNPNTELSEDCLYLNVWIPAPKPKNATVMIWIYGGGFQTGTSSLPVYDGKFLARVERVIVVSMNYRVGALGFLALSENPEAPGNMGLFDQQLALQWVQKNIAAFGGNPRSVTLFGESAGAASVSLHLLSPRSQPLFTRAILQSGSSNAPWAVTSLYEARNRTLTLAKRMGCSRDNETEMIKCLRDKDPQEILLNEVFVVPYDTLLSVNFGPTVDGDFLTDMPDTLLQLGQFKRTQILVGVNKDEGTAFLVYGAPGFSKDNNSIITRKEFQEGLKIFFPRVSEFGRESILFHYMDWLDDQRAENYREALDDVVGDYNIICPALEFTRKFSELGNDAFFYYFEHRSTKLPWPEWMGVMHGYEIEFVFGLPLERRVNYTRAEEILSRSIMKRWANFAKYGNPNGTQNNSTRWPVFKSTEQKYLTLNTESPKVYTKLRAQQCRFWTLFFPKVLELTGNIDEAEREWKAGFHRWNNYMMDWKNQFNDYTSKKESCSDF

SMILES	IC50 (bovine lung SSAO) [µM]	IC50 [1] [µM]	IC50 [2, 9] [µM]	BuChE/ AChE ([2]; ratio of IC50 values)	IC50 (ratMAO-A [3]) [µM]	MAO-B/ MAO-A (ratMAO-B [4])	IC50 (ratMAO-B [4]) [µM]	MAO-B/ MAO-A (ratMAO-B [4]; ratio of IC50 values)	BuChE/ AChE [2]	IC50 [2] [µM]	IC50 [5] [µM]	IC50 [6] [µM]	IC50 eqBuChE [6]	IC50 (ratMAO-A [7]) [nM]	IC50 (ratMAO-B [8]) [nM]
C#CCN(Cc1ccc(O)c2ncccc12)C(C#N)C1CCN(Cc2ccccc2)CC1 (centres unmarked) [Compound 2, 2-(1-benzylpiperidin-4-yl)-2-(((8-hydroxyquinolin-5-yl)methyl)(prop-2-ynyl)amino)acetonitrile]	18 ± 5	14.5 ± 3.7	13.5 ± 1.8	0.92	22.1 ± 0.7	1.7	39.5 ± 1.4	–	–	–	–	–	–	–	–
C#CCN(Cc1ccc(O)c2ncccc12)CC1CCN(Cc2ccccc2)CC1 [Compound 3, 5-((((1-benzylpiperidin-4-yl)methyl)(prop-2-ynyl)amino)methyl)quinolin-8-ol]	≥ 100	17 ± 4.7	12.8 ± 1.4	0.75	85.4 ± 3.7	–	19.4 ± 3.2	0.22	–	–	–	–	–	–	–
C#CCN(Cc1ccc(O)c2ncccc12)C(C#N)CC1CCN(Cc2ccccc2)CC1 (centres unmarked) [Compound 4, 3-(1-benzylpiperidin-4-yl)-2-(((8-hydroxyquinolin-5-yl)methyl)(prop-2-ynyl)amino)propanenitrile]	2.79 ± 0.7	5.53 ± 0.5	–	–	9.67 ± 1.5	1.2	12.4 ± 2.5	–	1.1	6.06 ± 0.6	–	–	–	–	–
C#CCN(CCC1CCN(Cc2ccccc2)CC1)Cc1ccc(O)c2ncccc12 [Compound 5, 5-(((2-(1-benzylpiperidin-4-yl)ethyl)(prop-2-ynyl)amino)methyl)quinolin-8-ol]	39.7 ± 16	5.01 ± 0.8	14.5 ± 3.6	2.8	≥ 100	–	50.08 ± 0.5	≥ 0.5	–	–	–	–	–	–	–
C#CCN(CCCC1CCN(Cc2ccccc2)CC1)Cc1ccc(O)c2ncccc12 [Compound 7, 5-(((3-(1-benzylpiperidin-4-yl)propyl)(prop-2-ynyl)amino)methyl)quinolin-8-ol]	61.1 ± 21.4	2.67 ± 0.4	4.52 ± 0.3	1.6	≥ 100	–	34.5 ± 3.5	≥ 0.34	–	–	–	–	–	–	–
C#CCN(C)Cc1ccc(O)c2ncccc12 [Compound M-30]	–	–	–	–	–	1.5	–	–	–	–	114 ± 14.1	≥ 100	inactive	37 ± 20	57 ± 20
